Experimental data reported in patent publication US4921850A, “3-propenylcephem derivative” (Eisai Co., Ltd., priority 1986, dated 1990).
Converted amounts (≈) assume the structure as drawn. Read-outs that look alike come from different tables or passages of the source.

Key:
in vivo = conditions: read-out: values of acute toxicity
Excerpt: (1) Acute toxicity in mouse:
The compounds according to this invention dissolved in a physiological saline solution were intravenously dosed to five ICR male 6 weeks-old mouse.

Escher. coli NIHJ = assay: Anti-bacterial activity (MIC), agar dilution; type: cell-based; conditions: Escher. coli NIHJ, agar dilution, about 10^6 CFU/ml, 18 hours, 37° C.
How it was run: (§1)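 Agar dilution; MH broth overnight cultures → ~10^6 CFU/ml; spotted on MH agar with twofold serial drug dilutions; 18 h, 37° C; MIC in μg/ml.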

Kleb. pneumoniae EK-6 = assay: Anti-bacterial activity (MIC), agar dilution; type: cell-based; conditions: Kleb. pneumoniae EK-6, agar dilution, about 10^6 CFU/ml, 18 hours, 37° C.
How it was run: as §1

[1] = system: Morganella morganii EP-14; assay: Anti-bacterial activity (MIC), agar dilution; type: cell-based; conditions: about 10^6 CFU/ml, 37° C.
How it was run: as §1

Pseud. aeruginosa EP-01 = assay: Anti-bacterial activity (MIC), agar dilution; type: cell-based; conditions: Pseud. aeruginosa EP-01, agar dilution, about 10^6 CFU/ml, 18 hours, 37° C.
How it was run: as §1

Ser. marcescens ES-75 = assay: Anti-bacterial activity (MIC), agar dilution; type: cell-based; conditions: Ser. marcescens ES-75, agar dilution, about 10^6 CFU/ml, 18 hours, 37° C.
How it was run: as §1

Staph. aureus 209-P = assay: Anti-bacterial activity (MIC), agar dilution; type: cell-based; conditions: Staph. aureus 209-P, agar dilution, about 10^6 CFU/ml, 18 hours, 37° C.
How it was run: as §1

[2] = intravenous, physiological saline solution, five ICR male 6 weeks-old mouse
[3] = Escherichia coli, 18 h, read-out: MIC
[4] = Klebsiella pneumoniae, EK6, 18 h, read-out: MIC
[5] = Morganella morganii, EP14, 18 h, read-out: MIC
[6] = Pseudomonas aeruginosa, EP01, 18 h, read-out: MIC
[7] = Serratia marcescens, ES75, 18 h, read-out: MIC
[8] = Staphylococcus aureus, 209P, 18 h, read-out: MIC

| SMILES | LD50 (in vivo; [2]) | MIC (Escher. coli NIHJ; [3]) | MIC (Kleb. pneumoniae EK-6; [4]) | MIC [1, 5] | MIC (Pseud. aeruginosa EP-01; [6]) | MIC (Ser. marcescens ES-75; [7]) | MIC (Staph. aureus 209-P; [8]) | LD50 (in vivo; mouse, iv) | MIC (Escher. coli NIHJ) | MIC (Kleb. pneumoniae EK-6) | MIC ([1]; 18 hours) | MIC (Pseud. aeruginosa EP-01) | MIC (Ser. marcescens ES-75) | MIC (Staph. aureus 209-P) |
| --- | --- | --- | --- | --- | --- | --- | --- | --- | --- | --- | --- | --- | --- | --- |
| C[N+](C)(C/C=C/C1=C(C(=O)[O-])N2C(=O)[C@@H](NC(=O)/C(=N\OCC#N)c3nsc(N)n3)[C@H]2SC1)[C@@H](CO)C(N)=O [Example 145, 7β-[2-(5-Amino-1,2,4-thiadiazol-3-yl)-(Z)-2-cyanomethoxyiminoacetamido]-3-[(E)-3-[(1S-carbamoyl-2-hydroxyethyl)dimethylammonio]-1-propen-1-yl]-3-cephem-4-carboxylate] | > 2000 mg/kg | 0.2 µg/mL (≈ 0.345 µM) | 0.1 µg/mL (≈ 0.173 µM) | 0.1 µg/mL (≈ 0.173 µM) | 1.56 µg/mL (≈ 2.69 µM) | 0.1 µg/mL (≈ 0.173 µM) | 0.4 µg/mL (≈ 0.69 µM) | – | – | – | – | – | – | – |
| C[N+]1(C/C=C/C2=C(C(=O)[O-])N3C(=O)[C@@H](NC(=O)/C(=N\OCF)c4nsc(N)n4)[C@H]3SC2)C[C@H](O)C[C@@H]1CO (single isomer, unassigned) [Example 6-1, 7β-[2-(5-Amino-1,2,4-thiadiazol-3-yl)-(Z)-2-fluoromethoxyiminoacetamido]-3-[(E)-3-(4R-hydroxy-2R-hydroxymethyl-1-methyl-1-pyrrolidinio)-1-propen-1-yl]-3-cephem-4-carboxylate] | – | 0.05 µg/mL (≈ 0.0875 µM) | ≤ 0.025 µg/mL | ≤ 0.025 µg/mL | 0.8 µg/mL (≈ 1.4 µM) | ≤ 0.025 µg/mL | 0.2 µg/mL (≈ 0.35 µM) | > 2000 mg/kg | – | – | – | – | – | – |
| C[N+]1(C/C=C/C2=C(C(=O)[O-])N3C(=O)[C@@H](NC(=O)/C(=N\OCF)c4nsc(N)n4)[C@H]3SC2)CCN(C(N)=O)CC1 [Example 121, 7β-[2-(5-Amino-1,2,4-thiadiazol-3-yl)-(Z)-2-fluoromethoxyiminoacetamido]-3-[(E)-3-(1-methyl-4-carbamoyl-1-piperazinio)-1-propen-1-yl]-3-cephem-4-carboxylate] | > 2000 mg/kg | ≤ 0.025 µg/mL | ≤ 0.025 µg/mL | ≤ 0.025 µg/mL | 0.8 µg/mL (≈ 1.37 µM) | 0.1 µg/mL (≈ 0.171 µM) | 0.2 µg/mL (≈ 0.343 µM) | – | – | – | – | – | – | – |
| CC(=O)C[N+](C)(C)C/C=C/C1=C(C(=O)[O-])N2C(=O)[C@@H](NC(=O)/C(=N\OCC#N)c3nsc(N)n3)[C@H]2SC1 [Example 154] | > 2000 mg/kg | 0.1 µg/mL (≈ 0.182 µM) | 0.1 µg/mL (≈ 0.182 µM) | 0.1 µg/mL (≈ 0.182 µM) | 0.8 µg/mL (≈ 1.46 µM) | 0.1 µg/mL (≈ 0.182 µM) | 0.4 µg/mL (≈ 0.729 µM) | – | – | – | – | – | – | – |
| CC(=O)C[N+](C)(C)C/C=C/C1=C(C(=O)[O-])N2C(=O)[C@@H](NC(=O)/C(=N\OCF)c3nsc(N)n3)[C@H]2SC1 [Example 137, 7β-[2-(5-Amino-1,2,4-thiadiazol-3-yl)-(Z)-2-fluoromethoxyiminoacetamido]-3-[(E)-3-[(2-oxopropyl)dimethylammonio]-1-propen-1-yl]-3-cephem-4-carboxylate] | > 2000 mg/kg | – | – | – | – | – | – | – | – | – | – | – | – | – |
| CC(C(N)=O)[N+]1(C/C=C/C2=C(C(=O)[O-])N3C(=O)[C@@H](NC(=O)/C(=N\OCF)c4nsc(N)n4)[C@H]3SC2)CCCC1 (single isomer, unassigned) [Example 13-1] | > 2000 mg/kg | ≤ 0.025 µg/mL | ≤ 0.025 µg/mL | ≤ 0.025 µg/mL | 0.8 µg/mL (≈ 1.37 µM) | ≤ 0.025 µg/mL | 0.2 µg/mL (≈ 0.343 µM) | – | – | – | – | – | – | – |
| C[C@H](C(N)=O)[N+](C)(C)C/C=C/C1=C(C(=O)[O-])N2C(=O)[C@@H](NC(=O)/C(=N\OCF)c3nsc(N)n3)[C@H]2SC1 [Example 3-2, 7β-[2-(5-Amino-1,2,4-thiadiazol-3-yl)-(Z)-2-fluoromethoximinoacetamido]-3-[(E)-3-[(1R-carbamoylethyl)dimethylammonio]-1-propen-1-yl]-3-cephem-4-carboxylate] | > 2000 mg/kg | ≤ 0.025 µg/mL | ≤ 0.025 µg/mL | ≤ 0.025 µg/mL | 1.56 µg/mL (≈ 2.8 µM) | 0.1 µg/mL (≈ 0.18 µM) | 0.2 µg/mL (≈ 0.359 µM) | – | – | – | – | – | – | – |
| C[N+]1(C/C=C/C2=C(C(=O)[O-])N3C(=O)[C@@H](NC(=O)/C(=N\OCF)c4nsc(N)n4)[C@H]3SC2)CCN(S(=O)(=O)O)CC1 [Example 10, 7β-[2-(5-Amino-1,2,4-thiadiazol-3-yl)-(Z)-2-fluoromethoxyiminoacetamido]-3-[(E)-3-(1-methyl-4-sulfo-1-piperazinio)-1-propen-1-yl]-3-cephem-4-carboxylate] | > 2000 mg/kg | ≤ 0.025 µg/mL | ≤ 0.025 µg/mL | ≤ 0.025 µg/mL | 1.56 µg/mL (≈ 2.51 µM) | ≤ 0.025 µg/mL | 0.8 µg/mL (≈ 1.29 µM) | – | – | – | – | – | – | – |
| NC(=O)C[N+]1(C/C=C/C2=C(C(=O)[O-])N3C(=O)[C@@H](NC(=O)/C(=N\OCF)c4nsc(N)n4)[C@H]3SC2)CCC(O)CC1 (stereo partly drawn) [Example 11, 7β-[2-(5-Amino-1,2,4-thiadiazol-3-yl)-(Z)-2-fluoromethoxyiminoacetamido]-3-[(E)-3-(1-carbamoylmethyl-4-hydroxy-1-piperidinio)-1-propen-1-yl]-3-cephem-4-carboxylate] | > 2000 mg/kg | ≤ 0.025 µg/mL | ≤ 0.025 µg/mL | ≤ 0.025 µg/mL | 0.8 µg/mL (≈ 1.34 µM) | ≤ 0.025 µg/mL | 0.4 µg/mL (≈ 0.668 µM) | – | – | – | – | – | – | – |
| CC[N+](CC)(C/C=C/C1=C(C(=O)[O-])N2C(=O)[C@@H](NC(=O)/C(=N\OCF)c3nsc(N)n3)[C@H]2SC1)CC(N)=O [Example 96] | > 2000 mg/kg | ≤ 0.025 µg/mL | ≤ 0.025 µg/mL | ≤ 0.025 µg/mL | 0.8 µg/mL (≈ 1.4 µM) | ≤ 0.025 µg/mL | 0.2 µg/mL (≈ 0.35 µM) | – | – | – | – | – | – | – |
| C[C@@H](C(N)=O)[N+](C)(C)C/C=C/C1=C(C(=O)[O-])N2C(=O)[C@@H](NC(=O)/C(=N\OCF)c3nsc(N)n3)[C@H]2SC1 [Example 3-1] | > 2000 mg/kg | ≤ 0.025 µg/mL | ≤ 0.025 µg/mL | ≤ 0.025 µg/mL | 0.8 µg/mL (≈ 1.44 µM) | 0.05 µg/mL (≈ 0.0898 µM) | 0.2 µg/mL (≈ 0.359 µM) | – | – | – | – | – | – | – |
| C[N+](C)(C/C=C/C1=C(C(=O)[O-])N2C(=O)[C@@H](NC(=O)/C(=N\OCF)c3nsc(N)n3)[C@H]2SC1)[C@H](CO)C(N)=O [Example 5, 7β-[2-(5-Amino-1,2,4-thiadiazol-3-yl)-(Z)-2-fluoromethoxyiminoacetamido]-3-[(E)-3-[(1R-carbamoyl-2-hydroxyethyl)dimethylammonio]-1-propen-1-yl]-3-cephem-4-carboxylate] | > 2000 mg/kg | ≤ 0.025 µg/mL | ≤ 0.025 µg/mL | ≤ 0.025 µg/mL | 0.8 µg/mL (≈ 1.4 µM) | ≤ 0.025 µg/mL | 0.2 µg/mL (≈ 0.349 µM) | – | – | – | – | – | – | – |
| NC(=O)C[N+]1(C/C=C/C2=C(C(=O)[O-])N3C(=O)[C@@H](NC(=O)/C(=N\OCF)c4nsc(N)n4)[C@H]3SC2)CCC(O)C1 (stereo partly drawn) [Example 9-1, 7β-[2-(5-Amino-1,2,4-thiadiazol-3-yl)-(Z)-2-fluoromethoxyiminoacetamido]-3-[(E)-3-(1-carbamoylmethyl-3-hydroxy-1-pyrrolidinio)-1-propen-1-yl]-3-cephem-4-carboxylate] | > 2000 mg/kg | ≤ 0.025 µg/mL | ≤ 0.025 µg/mL | ≤ 0.025 µg/mL | 0.8 µg/mL (≈ 1.37 µM) | ≤ 0.025 µg/mL | 0.4 µg/mL (≈ 0.684 µM) | – | – | – | – | – | – | – |
| Nc1nc(/C(=N/OCF)C(=O)N[C@@H]2C(=O)N3C(C(=O)[O-])=C(/C=C/C[N+]4(CC(O)CO)CCCC4)CS[C@H]23)ns1 (single isomer, unassigned) [Example 23-1] | – | ≤ 0.025 µg/mL | ≤ 0.025 µg/mL | ≤ 0.025 µg/mL | 1.56 µg/mL (≈ 2.66 µM) | ≤ 0.025 µg/mL | 0.2 µg/mL (≈ 0.342 µM) | – | – | – | – | – | – | – |
| C[N+](C)(C/C=C/C1=C(C(=O)[O-])N2C(=O)[C@@H](NC(=O)/C(=N\OCF)c3nsc(N)n3)[C@H]2SC1)[C@H](CO)C(=O)NCO [Example 63] | – | ≤ 0.025 µg/mL | 0.05 µg/mL (≈ 0.083 µM) | ≤ 0.025 µg/mL | 0.8 µg/mL (≈ 1.33 µM) | ≤ 0.025 µg/mL | 0.4 µg/mL (≈ 0.664 µM) | – | – | – | – | – | – | – |
| C[N+]1(C/C=C/C2=C(C(=O)[O-])N3C(=O)[C@@H](NC(=O)/C(=N\OCF)c4nsc(N)n4)[C@H]3SC2)C[C@H](O)C[C@@H]1CO (single isomer, unassigned) [Example 6-2, 7β-[2-(5-Amino-1,2,4-thiadiazol-3-yl)-(Z)-2-fluoromethoxyiminoacetamido]-3-[(E)-3-(4R-hydroxy-2R-hydroxymethyl-1-methyl-1-pyrrolidinio)-1-propen-1-yl]-3-cephem-4-carboxylate] | – | – | – | – | – | – | – | – | ≤ 0.025 µg/mL | ≤ 0.025 µg/mL | ≤ 0.025 µg/mL | 0.8 µg/mL (≈ 1.4 µM) | ≤ 0.025 µg/mL | 0.1 µg/mL (≈ 0.175 µM) |
| CN1CCC[N+]1(C)C/C=C/C1=C(C(=O)[O-])N2C(=O)[C@@H](NC(=O)/C(=N\OCF)c3nsc(N)n3)[C@H]2SC1 (single isomer, unassigned) [Example 122-B, 7β-[2-(5-Amino-1,2,4-thiadiazol-3-yl)-(Z)-2-fluoromethoxyiminoacetamido]-3-[(E)-3-(1,2-dimethyl-1-pyrazolidinio)-1-propen-1-yl]-3-cephem-4-carboxylate] | – | – | – | – | – | – | – | – | ≤ 0.025 µg/mL | ≤ 0.025 µg/mL | ≤ 0.025 µg/mL | 0.8 µg/mL (≈ 1.48 µM) | 0.05 µg/mL (≈ 0.0925 µM) | 0.1 µg/mL (≈ 0.185 µM) |
